In patent US20210267953A1, “SUBSTITUTED OXAZOLIDINONES FOR THE TREATMENT OF MAMMALIAN INFECTIONS” (CADILA HEALTHCARE LIMITED, priority 2018, published 2021):
Converted amounts (≈) assume the structure as drawn.

test system: Mycobacterium tuberculosis H37Rv; assay: Minimum Inhibitory Concentration (MIC) determination, MABA assay; type: cell-based; conditions: Microplate Alamar Blue Assay, M. tuberculosis H37Rv log phase culture in 7H-9 medium, 7 days at 37° C., lowest concentration that prevents colour change blue to pink, read-out: Mtb MIC

SMILES | MIC
CC(=O)NC[C@H]1CN(c2cc(F)c(N3CCC(C4CS(=O)(=O)C4)CC3)c(F)c2)C(=O)O1 [Example 9, (S)—N-((3-(4-(4-(1,1-dioxidothietan-3-yl)piperidin-1-yl)-3,5-difluorophenyl)-2-oxooxazolidin-5-yl)methyl)acetamide] | 1.25 µM (≈ 0.572 µg/mL)
O=C1O[C@@H](Cn2ccnn2)CN1c1cc(F)c(N2CCC3(CC2)CS(=O)(=O)C3)c(F)c1 [Example 1, (R)-5-((1H-1,2,3-triazol-1-yl)methyl)-3-(4-(2,2-dioxido-2-thia-7-azaspiro[3.5]nonan-7-yl)-3,5-difluorophenyl)oxazolidin-2-one] | 1.25 µM (≈ 0.567 µg/mL)
CC(=O)NC[C@H]1CN(c2ccc(N3CCC4(CC3)CS(=O)(=O)C4)c(F)c2)C(=O)O1 [Example 5, (S)—N-((3-(4-(2,2-dioxido-2-thia-7-azaspiro[3.5]nonan-7-yl)-3-fluorophenyl)-2-oxooxazolidin-5-yl)methyl)acetamide] | 1.25 µM (≈ 0.532 µg/mL)
CC(=O)NC[C@H]1CN(c2ccc(N3CCC(C4CS(=O)(=O)C4)CC3)c(F)c2)C(=O)O1 [Example 10, (S)—N-((3-(4-(4-(1,1-dioxidothietan-3-yl)piperidin-1-yl)-3-fluorophenyl)-2-oxooxazolidin-5-yl)methyl)acetamide] | 2.5 µM (≈ 1.1 µg/mL)
CC(=O)NC[C@H]1CN(c2ccc(N3CCC4(CC3)COC4)c(F)c2)C(=O)O1 [Example 7, (S)—N-((3-(3-fluoro-4-(2-oxa-7-azaspiro[3.5]nonan-7-yl)phenyl)-2-oxooxazolidin-5-yl)methyl)acetamide] | 2.5 µM (≈ 0.944 µg/mL)
CC(=O)NC[C@H]1CN(c2cc(F)c(N3CCC4(CC3)CS(=O)(=O)C4)c(F)c2)C(=O)O1 [Example 3, (S)—N-((3-(4-(2,2-dioxido-2-thia-7-azaspiro[3.5]nonan-7-yl)-3,5-difluorophenyl)-2-oxooxazolidin-5-yl)methyl)acetamide] | 1.25 µM (≈ 0.554 µg/mL)
CC(=O)NC[C@H]1CN(c2cc(F)c(N3CCC(C4COC4)CC3)c(F)c2)C(=O)O1 [Example 8, (S)—N-((3-(3,5-difluoro-4-(4-(oxetan-3-yl)piperidin-1-yl)phenyl)-2-oxooxazolidin-5-yl)methyl)acetamide] | 2.5 µM (≈ 1.02 µg/mL)
COC(=O)NC[C@H]1CN(c2cc(F)c(N3CCC4(CC3)CS(=O)(=O)C4)c(F)c2)C(=O)O1 [Example 4, (S)-methyl ((3-(4-(2,2-dioxido-2-thia-7-azaspiro[3.5]nonan-7-yl)-3,5-difluorophenyl)-2-oxooxazolidin-5-yl)methyl)carbamate] | 1.25 µM (≈ 0.574 µg/mL)
O=C1O[C@@H](CNc2ccon2)CN1c1cc(F)c(N2CCC3(CC2)CS(=O)(=O)C3)c(F)c1 [Example 2, (S)-3-(4-(2,2-dioxido-2-thia-7-azaspiro[3.5]nonan-7-yl)-3,5-difluorophenyl)-5-((isoxazol-3-ylamino)methyl)oxazolidin-2-one] | 1.25 µM (≈ 0.586 µg/mL)
CC(=O)NC[C@H]1CN(c2cc(F)c(N3CCC4(CC3)COC4)c(F)c2)C(=O)O1 [Example 6, (S)—N-((3-(3,5-difluoro-4-(2-oxa-7-azaspiro[3.5]nonan-7-yl)phenyl)-2-oxooxazolidin-5-yl)methyl)acetamide] | 1.25 to 2.5 µM (≈ 0.494 to 0.989 µg/mL)
